GI50 and TGI data for ten compounds are collected here from PubChem BioAssay (NCI).

What all share (test): growth of human tumour cells (NCI), 48 h
Test [1] relates to CAKI-1 renal.
The subject of test [2] is DU-145 prostate.
For test [3], the system named is MDA-MB-435.
Test [4] relates to K-562 leukemia.
Test [5] concerns BT-549 breast.
Test [6] relates to SNB-19 CNS.
The subject of test [7] is SF-268 CNS.
Test [8] relates to UO-31 renal.
Test [9] concerns MDA-MB-231 breast.
The test system of test [10] is HCC-2998 colon.

Values joined by “and” are separate entries in the source; they are usually repeats but may differ in a detail not shown here. Equal values may be shown once.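 Test compounds were applied to cells in 96-well plates for 48 hours at 5 doses. At the GI50, growth is halved. TGI marks complete inhibition of growth.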 Bounds are passed on as bounds.

With `COc1ccc(-c2cc(/C=C/C(=O)c3ccc(N)cc3)[nH]n2)cc1`, the GI50 in [1] was 1320 nM; in test [2], 1320 nM; in [3] it was 2240 nM; in [4] it was 1420 nM; in test [5] it was 1740 nM; in test [6], 2290 nM. In addition, the GI50 is 1820 nM in test [7], 1180 nM in [8], 2140 nM in test [9] and 1830 nM in test [10]. Besides, the TGI in test [1] came out at 11100 nM; in test [2], 3460 nM; in test [3], 7000 nM; in test [4], 11600 nM; in test [5], 4780 nM; in test [6], 11600 nM. Besides, the TGI in test [7] stood at 5310 nM; in [8] it was 2560 nM; in test [9], 8290 nM; in test [10] it was 3360 nM.

Regarding `COc1cc2cc(Oc3cccc(NC(=O)Nc4cc(C(F)(F)F)cc(C(F)(F)F)c4)c3)c(C)nc2cc1OC`, the GI50 in test [1] was 1410 nM; in test [2] it was 2380 nM; in test [3] it was 1800 nM; in [4], 573 nM; in test [5], 1750 nM; in test [6], 654 nM. The GI50 in [7] is 1620 nM; in test [8], 266 nM; in [9] it was 1080 nM; in test [10], 1530 nM. Moreover, the TGI in test [1] is 5100 nM; in [2], 9360 nM; in [3], 4280 nM; in test [4], 2530 nM; in test [5], 3760 nM; in test [6], 2160 nM. Besides, the TGI in test [7] was 3680 nM; in test [8], 1650 nM; in test [9], 2490 nM; in [10] it was 3150 nM.

Turning to `O=[N+]([O-])/C=C/c1ccc(Cl)cc1[N+](=O)[O-]`, the GI50 is 2160 nM in test [1]; 2520 nM in [2]; 3620 nM in test [3]; 3080 nM in [4]; 3470 nM in test [5]; 3320 nM in [6]. Moreover, the GI50 in test [7] was 3340 nM; in test [8], 1550 nM; in test [9], 2330 nM; in test [10] it was 1850 nM. Further, the TGI in test [1] stood at 9090 nM; in [2], 5490 nM; in test [3], 16100 nM; in test [4], 24100 nM; in test [5] it was 10200 nM; in test [6], 14000 nM. Also, the TGI in [7] was more than 100000 nM; in test [8], 3820 nM; in [9], 6460 nM; in [10], 3410 nM.

Take `NCCCN=c1ccc2c3c1c(O)c1c(O)ccc(=O)c1c3[nH]n2CCNCCO`: the GI50 in [1] is 1100 nM and 528 nM; in [2], 1000 nM; in test [4], 1610 nM and 1640 nM; in [6], 821 nM; in test [8], 3780 nM and 14200 nM; in test [9], 2430 nM. For the same compound, in [10], the GI50 was 1600 nM and 3180 nM. The TGI was 11200 nM and 3840 nM in test [1]; 5570 nM and 8300 nM in test [2]; 15400 nM in [3]; 24200 nM and 27200 nM in [4]; 5310 nM in test [5]; 6570 nM and 14100 nM in test [6]. Further, the TGI in [7] was 6510 nM; in test [8], 24500 nM and 98100 nM; in test [9], 12300 nM and 25000 nM; in test [10], 11400 nM and 26800 nM.

As to `COc1ccc(/C=C/C(=O)c2cc3c(N)c(C(=O)Nc4ccc(OC)cc4)sc3nc2C)cc1`, the GI50 was 593 nM in [1]; 184 nM in [2]; 18.9 nM in test [3]; 385 nM in test [4]; 571 nM in test [5]; 746 nM in test [6]. In addition, the GI50 in test [7] is 2020 nM; in [8], 988 nM; in test [9] it was 1280 nM; in test [10], 174 nM. For the same compound, the TGI in [1] is more than 50000 nM; in [2], 7780 nM; in test [3], 77.7 nM; in test [4], more than 50000 nM; in [5], more than 50000 nM; in [6], more than 41300 nM. For the same compound, the figures for the TGI in test [7], in test [8] and in test [9] were more than 50000 nM, more than 50000 nM and 22000 nM, respectively.

As for `NC(=O)/C(=C/n1cnc(-c2cc(C(F)(F)F)cc(C(F)(F)F)c2)n1)c1cncnc1`, the GI50 in test [1] was 275 nM; in test [2] it was 625 nM; in [3], 237 nM; in test [4] it was 144 nM; in test [5] it was 120 nM; in [6], 654 nM. Further, the GI50 in test [7] is 516 nM; in [8] it was 426 nM; in test [9] it was 186 nM; in test [10], 740 nM. Besides, the TGI in [1] came to 14100 nM; in test [2], 12200 nM; in test [3], 3890 nM; in [4] it was 38700 nM; in [5], 2980 nM; in test [6], 15000 nM. Besides, the TGI amounted to 11900 nM in test [7], 12800 nM in test [8], 16900 nM in [9] and 5340 nM in [10].

As for `N#[N+]c1ccc(Nc2ccccc2)cc1`, the GI50 in test [1] was 1.11 µg/mL; in test [2], more than 50 µg/mL; in test [3], 1.83 µg/mL; in [4], more than 50 µg/mL; in test [5], more than 50 µg/mL; in test [6], more than 50 µg/mL. The GI50 in test [7], in [8], in [9] and in test [10] was more than 50 µg/mL each time. Further, the TGI in test [1] was 19.3 µg/mL; in test [2] it was more than 50 µg/mL; in [3], 17.7 µg/mL; in test [4], more than 50 µg/mL; in [5], more than 50 µg/mL; in test [6], more than 50 µg/mL. Moreover, the TGI in test [7], in test [8], in [9] and in test [10] was more than 50 µg/mL each time.

Take `O=C1Nc2ccc3c(c2/C1=C\c1cc2c(cc1Br)OCO2)OCO3`: the GI50 was 331 nM in test [1]; 490 nM in test [2]; 106 nM in test [3]; 179 nM in test [4]; 710 nM in [5]; 552 nM in test [6]. For the same compound, the GI50 in test [7] was 524 nM; in test [8], 191 nM; in [9], 793 nM; in [10] it was 1650 nM. For the same compound, the TGI in test [1] is 2800 nM; in test [2], 2110 nM; in test [3], 305 nM; in test [4], more than 35900 nM; in test [5], 39500 nM; in test [6], 7040 nM. Also, the TGI is 3280 nM in [7], 2130 nM in [8], 3270 nM in test [9] and more than 100000 nM in [10].

With `C[C@@H]1CCc2ncc(F)cc2[C@H]2CCCN2c2ccn3ncc(c3n2)C(=O)N1`, the GI50 is 23000 nM in test [1]; 73700 nM in test [2]; 83100 nM in test [3]; 29800 nM in test [4]; 69800 nM in test [5]; more than 100000 nM in [6]. Moreover, the GI50 in test [7] is more than 100000 nM; in test [8], 29800 nM; in test [9], 29900 nM; in [10], more than 100000 nM. The TGI in test [1], in test [2], in test [3], in [4], in test [5] and in test [6] was more than 100000 nM each time. The TGI in [7], in test [8], in test [9] and in test [10] was more than 100000 nM throughout.

In the case of `C[As](C)SC1OCC(O)C(O)C1O` (stereo unspecified), the GI50 in [1] is 51.4 nM; in test [2] it was 122 nM; in test [3], 130 nM; in [4] it was 49.5 nM; in test [5], 363 nM; in test [6], 4220 nM. Also, the GI50 is 492 nM in test [7], 109 nM in test [8], 224 nM in test [9] and 224 nM in [10]. The TGI in test [1] amounted to 273 nM; in test [2] it was 824 nM; in test [3] it was 1320 nM; in test [4], 378 nM; in test [5], 1500 nM; in test [6], 27400 nM. In addition, the TGI in test [7] was found to be 2880 nM; in test [8] it was 530 nM; in test [9], 630 nM; in [10], 466 nM.
